Consider eleven compounds from US9458092B2, “α-Substituted glycinamide derivative” (KISSEI PHARMACEUTICAL CO., LTD., priority 2013, dated 2016).

In one test the target is TRPM8 (Rattus norvegicus, UniProt Q8R455). Kind of test: Confirmation test of inhibitory effects on icilin-induced wet-dog shakes. The class given is in vivo, female SD rats. To be noted: icilin 1 mg/kg i.p. after 1 hour, shakes counted for 5 minutes. More on the design: test compounds were orally administered to female SD rats; from tissue; host or cells: whole animal (female SD rats), endogenous channel. As for the experimental part: Test compounds were dissolved in dimethylacetamide (wako), and 0.5% methylcellulose solution (wako) was added to make the solution or suspension containing 5% of dimethylacetamide. At a dose of 3 or 10 mg/kg/5 mL of test compounds were orally administered to female SD rats. After 1 hour, wet-dog shakes were induced by the intrapenitoneal injection of icilin (1 mg/kg) which was dissolved in polyethylene glycol 400 (wako). From 5 minutes after the administration of icilin, wet-dog shakes were counted for 5 minutes. For control example, vehicle (a mixture of dimethylacetamide (wako): 0.5% methylcellulose (wako)=5:95) was administrated similarly, and the number of wet-dog shakes was counted in the same manner. A percent inhibition of wet-dog shakes by test compound was calculated from the following formula: [1-(test compound wet-dog shake count/vehicle wet-dog shake count)]×100.

Test [1] deals with overactive bladder induced by acetic acid. Kind of test: Confirmation test of elongation action of micturition interval of overactive bladder induced by acetic acid. The class given is in vivo, female SD rats. To be noted: Rattus norvegicus, iv, interval before administration = 100%. As for the experimental part: Urethane (sigma) was dissolved into pure water by 25% w/v, and female SD rats were anesthetized with 1.25 g/kg urethane by subcutaneous administration. Cannulae were placed in femoral vein and bladder, and the bladder cannula was connected to both a syringe pump and a pressure transducer. Detrusor overactivity was induced by intravesical infusion of 0.25% acetic acid in saline at a rate of 3.6 mL/h, and intravesical pressure was monitored via pressure transducer concurrently. Test compounds were dissolved into a mixture of dimethylacetamide and saline (20:80), and were administered via the femoral vein. When an average of the three micturition interval before administration was taken as 100%, an average of the three micturition interval after administration was calculated as Elongation of micturition interval (%) Dose and results are shown in tables 46 and 47.

Setting [2] is: 1 mg/kg/2 ml via the femoral vein.
The mark [3] stands for this setting: 1 mg/kg/ml via the femoral vein.

Sequence of TRPM8 (Q8R455 whole entry): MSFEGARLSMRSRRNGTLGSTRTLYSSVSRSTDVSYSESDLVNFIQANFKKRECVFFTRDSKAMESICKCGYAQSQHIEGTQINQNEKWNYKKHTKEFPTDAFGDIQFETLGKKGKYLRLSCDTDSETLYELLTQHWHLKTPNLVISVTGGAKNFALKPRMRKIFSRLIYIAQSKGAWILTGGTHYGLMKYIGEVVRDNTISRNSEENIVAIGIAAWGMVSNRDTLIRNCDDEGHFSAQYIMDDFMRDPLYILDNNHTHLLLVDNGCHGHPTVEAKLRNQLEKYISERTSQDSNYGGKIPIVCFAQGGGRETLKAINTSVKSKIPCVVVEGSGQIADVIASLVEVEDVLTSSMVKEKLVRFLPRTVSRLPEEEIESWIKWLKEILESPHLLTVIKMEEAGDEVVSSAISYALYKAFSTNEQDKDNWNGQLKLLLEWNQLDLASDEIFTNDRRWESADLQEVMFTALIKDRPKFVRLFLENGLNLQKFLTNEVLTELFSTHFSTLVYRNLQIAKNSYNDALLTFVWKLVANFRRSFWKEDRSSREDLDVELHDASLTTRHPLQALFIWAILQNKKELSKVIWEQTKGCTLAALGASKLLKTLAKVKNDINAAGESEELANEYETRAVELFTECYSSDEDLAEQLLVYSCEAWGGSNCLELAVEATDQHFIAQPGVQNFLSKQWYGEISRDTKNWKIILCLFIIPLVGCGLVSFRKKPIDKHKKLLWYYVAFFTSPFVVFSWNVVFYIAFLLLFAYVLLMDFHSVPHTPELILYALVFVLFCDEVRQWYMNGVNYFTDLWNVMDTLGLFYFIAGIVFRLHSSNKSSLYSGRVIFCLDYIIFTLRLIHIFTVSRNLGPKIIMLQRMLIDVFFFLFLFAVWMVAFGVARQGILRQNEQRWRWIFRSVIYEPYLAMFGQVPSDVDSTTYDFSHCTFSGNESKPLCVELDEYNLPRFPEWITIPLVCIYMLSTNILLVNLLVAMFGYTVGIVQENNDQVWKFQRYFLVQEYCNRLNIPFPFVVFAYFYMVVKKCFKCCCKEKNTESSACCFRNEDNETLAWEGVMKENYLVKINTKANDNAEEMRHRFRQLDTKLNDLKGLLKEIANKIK

Turning to `NC(=O)[C@@H](c1ccccc1)N(C(=O)c1ccccc1N)[C@@H]1CCc2c(F)cc(F)cc21` [Example 6-1, 2-amino-N-[(R)-carbamoylphenylmethyl]-N-[(R)-4,6-difluoroindan-1-yl]benzamide], at TRPM8 (dose 10 mg/kg orally), the “% inhibition of Wet-Dog Shake” value is listed as 89%. In test [1] (setting [2]), this compound yielded a response vs control in vivo at 1 mg/kg of 194%.
As for `NC(=O)[C@@H](c1ccccc1)N(C(=O)c1cccnc1N)[C@@H]1CCc2c(F)cc(Cl)cc21` [Example 13, 2-amino-N-[(R)-carbamoylphenylmethyl]-N-[(R)-6-chloro-4-fluoroindan-1-yl]nicotinamide], the “% inhibition of Wet-Dog Shake” value on TRPM8 (dose 3 mg/kg orally) worked out at 93%. Also, in test [1] (setting [3]), the response vs control in vivo at 1 mg/kg was 184%.
Consider `NC(=O)[C@@H](c1ccccc1)N(C(=O)c1ccccc1)[C@@H]1CCc2c(F)cc(Cl)cc21` [Example 2-6LP, N-[(R)-carbamoylphenylmethyl]-N-[(R)-6-chloro-4-fluoroindan-1-yl]benzamide], for which the “% inhibition of Wet-Dog Shake” value on TRPM8 (dose 3 mg/kg orally) is on record as 69%. Besides, the response vs control in vivo at 0.3 mg/kg in test [1] (0.3 mg/kg/ml via the femoral vein) worked out at 184%.
Turning to `NC(=O)[C@@H](c1ccccc1)N(C(=O)c1ccccc1)[C@@H]1CCc2c(F)cc(F)cc21` [Example 2-221LP, N-[(R)-carbamoylphenylmethyl]-N-[(R)-4,6-difluoroindan-1-yl]benzamide], at TRPM8 (dose 10 mg/kg orally), the “% inhibition of Wet-Dog Shake” value was 100%. In test [1] (setting [2]), this compound gave a response vs control in vivo at 1 mg/kg of 154%.
In the case of `COc1ccccc1C(=O)N([C@@H]1CCc2c(F)cc(Cl)cc21)[C@@H](C(N)=O)c1ccccc1` [Example 2-89LP, N-[(R)-carbamoylphenylmethyl]-N-[(R)-6-chloro-4-fluoroindan-1-yl]-2-methoxybenzamide], at TRPM8 (dose 3 mg/kg orally), the “% inhibition of Wet-Dog Shake” value worked out at 100%. The response vs control in vivo at 1 mg/kg in test [1] (setting [2]) worked out at 196%.
As to `Cc1ncccc1C(=O)N([C@@H]1CCc2c(F)cc(F)cc21)[C@@H](C(N)=O)c1ccccc1` [Example 2-131LP, N-[(R)-carbamoylphenylmethyl]-N-[(R)-4,6-difluoroindan-1-yl]-2-methylnicotinamide], the “% inhibition of Wet-Dog Shake” value on TRPM8 (dose 3 mg/kg orally) is on record as 100%. The compound further showed a response vs control in vivo at 1 mg/kg in test [1] (setting [3]) of 162%.
Take `NC(=O)[C@@H](c1cccnc1)N(C(=O)c1ccccc1)[C@@H]1CCc2c(F)cc(Cl)cc21` [Example 2-66LP, N-[(R)-carbamoylpyridin-3-ylmethyl]-N-[(R)-6-chloro-4-fluoroindan-1-yl]benzamide]: at TRPM8 (dose 10 mg/kg orally), the “% inhibition of Wet-Dog Shake” value stood at 100%. In test [1] (setting [3]), this compound gave a response vs control in vivo at 1 mg/kg of 175%.
`Cc1ncccc1C(=O)N([C@@H]1CCc2c(F)cc(Cl)cc21)[C@@H](C(N)=O)c1ccccc1` [Example 14LP, N-[(R)-carbamoylphenylmethyl]-N-[(R)-6-chloro-4-fluoroindan-1-yl]-2-methylnicotinamide]: the “% inhibition of Wet-Dog Shake” value on TRPM8 (dose 3 mg/kg orally) is on record as 100%. Further, in test [1] (setting [3]), the response vs control in vivo at 1 mg/kg worked out at 181%.
As for `NC(=O)[C@@H](c1ccccc1)N(C(=O)c1cccnc1N)[C@@H]1CCc2c(F)cc(F)cc21` [Example 1-3, 2-Amino-N-[(R)-carbamoylphenylmethyl]-N-[(R)-4,6-difluoroindan-1-yl]nicotinamide], at TRPM8 (dose 3 mg/kg orally), the “% inhibition of Wet-Dog Shake” value came out at 69%. The same compound displayed a response vs control in vivo at 1 mg/kg in test [1] (setting [3]) of 200%.
Turning to `NC(=O)[C@@H](c1ccccc1)N(C(=O)c1cccc2c1OCC2)[C@@H]1CCc2c(F)cc(Cl)cc21` [Example 2-111LP, N-[(R)-carbamoylphenylmethyl]-N-[(R)-6-chloro-4-fluoroindan-1-yl]-2,3-dihydrobenzofuran-7-carboxamide], the “% inhibition of Wet-Dog Shake” value on TRPM8 (dose 3 mg/kg orally) came to 91%. The same compound had a response vs control in vivo at 0.3 mg/kg in test [1] (0.3 mg/kg/2 ml via the femoral vein) of 135%.
For `Cc1scnc1C(=O)N([C@@H]1CCc2c(F)cc(Cl)cc21)[C@@H](C(N)=O)c1ccccc1` [Example 2-147LP, N-[(R)-carbamoylphenylmethyl]-N-[(R)-6-chloro-4-fluoroindan-1-yl]-5-methylthiazole-4-carboxamide], the “% inhibition of Wet-Dog Shake” value on TRPM8 (dose 3 mg/kg orally) is listed as 91%. The response vs control in vivo at 1 mg/kg in test [1] (setting [2]) is 146%.
